Tests used:
[1] = target: T1, NTF2L domain of G3BP1 (residues 1–138) (Homo sapiens, UniProt Q13283); assay: Isothermal titration calorimetry (ITC) of peptides with NTF2L; format: binding; conditions: for n, molar ratio: 20°C
T1 construct: 6xHis tag with TEV protease cleavage site (N, cleaved yes); made in house; host or cells: Escherichia coli BL21 (DE3)

NTF2L domain of G3BP1 [2] = assay: SEC-MALS of peptide–NTF2L complexes; format: physicochemical, human; conditions: ~2 mg/mL in PBS pH 7.4, Superdex 200 Increase 10/300 GL; for M.W., molecular weight of the peptide–NTF2L complex: 0.5 mL/min, value given in figure
NTF2L domain of G3BP1 [3] = assay: Size-exclusion chromatography (SEC) of NTF2L incubated with peptide: high-order oligomer formation; format: binding, human; conditions: peptide mixed with NTF2L, incubated at 4°C overnight, Superdex 200 Increase 10/300 GL
endogenous G3BP1 = assay: Co-immunoprecipitation with endogenous G3BP1 in HEK293T cells; format: cell-based; conditions: Co-IP, Flag magnetic beads, HEK293T cells lysed 36 h after transfection (3xFlag-mCherry constructs)
Procedure: HEK293T cells were seeded into a six-well cell culture plate and then transfected with the recombinant plasmids using TransIntro PEI Transfection Reagent (TransGen Biotech, FT401-01). Thirty-six hours after transfection, the cells were lysed with cell lysis buffer (Beyotime, P0013J) supplemented with proteinase inhibitor phenylmethylsulfonyl fluoride (Solarbio, P8340). Cell lysates were then centrifuged, and the supernatants were immunoprecipitated with Flag magnetic beads (LABLEAD, PFM025). Beads were washed three times with washing buffer (50 mM Tris-HCl, 500 mM NaCl, 0.1% Triton X-100, 1 mM EDTA, pH 7.5). Cell lysates or immunoprecipitants were analyzed with immunoblotting.
The proteins were then transferred to polyvinylidene fluoride membranes. Membranes were blocked for 4 h with 5% non-fat dry milk solution in Tris-buffered saline containing 0.1% Tween-20 (TBST) and then incubated with primary antibodies mouse anti-G3BP1 (Santa Cruz, sc-365338), mouse anti-Flag (Proteintech, 66008-4-Ig), and rabbit anti-β-actin (Proteintech, 81115-1-RR) overnight at 4°C. The membranes were washed with TBST and then incubated with the corresponding secondary antibodies. Proteins were visualized by SuperKine West Femto Maximum Sensitivity Substrate according to the manufacturer’s instruction (Abbkine, BMU102).

lung cancer cell = conditions: through targeting G3BP1; cited from earlier work
SARS-CoV-2 = conditions: cited from earlier work

T1 sequence (Q13283 1-138): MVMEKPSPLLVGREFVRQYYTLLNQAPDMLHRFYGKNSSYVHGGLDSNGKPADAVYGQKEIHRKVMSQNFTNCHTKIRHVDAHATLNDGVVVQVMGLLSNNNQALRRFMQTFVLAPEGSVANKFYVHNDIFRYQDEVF

Structure (SMILES): CC[C@H](C)[C@H](NC(=O)[C@H](CCC(=O)O)NC(=O)CNC(=O)[C@H](CC(=O)O)NC(=O)[C@H](CC(N)=O)NC(=O)[C@H](Cc1ccccc1)NC(=O)[C@H](CC(=O)O)NC(=O)CNC(=O)[C@H](Cc1ccccc1)NC(=O)[C@@H](NC(=O)[C@@H](NC(=O)[C@@H]1CCCN1C(=O)[C@H](Cc1ccccc1)NC(=O)[C@@H](NC(=O)[C@H](CCC(=O)O)NC(=O)[C@H](CO)NC(=O)CNC(=O)[C@H](CC(C)C)NC(=O)[C@@H]1CCCN1C(=O)CN)[C@@H](C)O)[C@@H](C)CC)[C@@H](C)O)C(=O)N[C@@H](CCC(=O)O)C(=O)N[C@@H](CO)C(=O)N[C@@H](CC(C)C)C(=O)N[C@@H](CO)C(=O)N[C@@H](CO)C(=O)N[C@@H](CCC(=O)O)C(=O)N[C@@H](CC(C)C)C(=O)N[C@@H](CC(C)C)C(=O)N[C@H](C(=O)N[C@@H](Cc1ccccc1)C(=O)NCC(=O)N[C@@H](CC(=O)O)C(=O)N[C@@H](Cc1ccccc1)C(=O)N[C@@H](CC(C)C)C(=O)N1CCC[C@H]1C(=O)NCC(=O)N[C@@H](C)C(=O)N[C@H](C(=O)N[C@@H](C)C(=O)N[C@@H](CC(=O)O)C(=O)N[C@@H](CC(C)C)C(=O)N[C@H](C(=O)N[C@@H](CC(=O)O)C(=O)N[C@@H](CO)C(=O)N[C@@H](CC(=O)O)C(=O)N[C@@H](Cc1c[nH]c2ccccc12)C(=O)N[C@@H](CO)C(=O)N[C@H](C(=O)N[C@@H](Cc1c[nH]cn1)C(=O)N[C@@H](Cc1c[nH]cn1)C(=O)N[C@@H](Cc1c[nH]cn1)C(=O)N[C@@H](Cc1c[nH]cn1)C(=O)N[C@@H](Cc1c[nH]cn1)C(=O)N[C@@H](Cc1c[nH]cn1)C(=O)O)[C@@H](C)O)[C@@H](C)O)C(C)C)[C@@H](C)O [CHIKV-43 mut]
- n, molar ratio ([1]; HEPES buffer pH 7.5, 200 µM peptide injected into 40 µM NTF2L): 0.6 ± 0.02
- fold reduction of binding affinity with NTF2L ([1]; compared to that of CHIKV-43 with NTF2L): ~ 15 fold
- M.W., molecular weight of the peptide–NTF2L complex (NTF2L domain of G3BP1 [2]): 58.7 ± 0.42 kDa

Structure (SMILES): CC[C@H](C)[C@H](NC(=O)[C@H](CCC(=O)O)NC(=O)CNC(=O)[C@H](CC(=O)O)NC(=O)[C@H](CC(N)=O)NC(=O)[C@H](Cc1ccccc1)NC(=O)[C@H](CC(=O)O)NC(=O)CNC(=O)[C@H](Cc1ccccc1)NC(=O)[C@@H](NC(=O)[C@@H](NC(=O)[C@@H]1CCCN1C(=O)[C@H](Cc1ccccc1)NC(=O)[C@@H](NC(=O)[C@H](CCC(=O)O)NC(=O)[C@H](CO)NC(=O)CNC(=O)[C@H](CC(C)C)NC(=O)[C@@H]1CCCN1C(=O)CN)[C@@H](C)O)[C@@H](C)CC)[C@@H](C)O)C(=O)N[C@@H](CCC(=O)O)C(=O)N[C@@H](CO)C(=O)N[C@@H](CC(C)C)C(=O)N[C@@H](CO)C(=O)N[C@@H](CO)C(=O)N[C@@H](CCC(=O)O)C(=O)N[C@@H](CC(C)C)C(=O)N[C@@H](CC(C)C)C(=O)N[C@H](C(=O)N[C@@H](Cc1ccccc1)C(=O)NCC(=O)N[C@@H](CC(=O)O)C(=O)N[C@@H](Cc1ccccc1)C(=O)N[C@@H](CC(C)C)C(=O)N1CCC[C@H]1C(=O)NCC(=O)N[C@@H](CCC(=O)O)C(=O)N[C@H](C(=O)N[C@@H](CC(=O)O)C(=O)N[C@@H](CC(=O)O)C(=O)N[C@@H](CC(C)C)C(=O)N[C@H](C(=O)N[C@@H](CC(=O)O)C(=O)N[C@@H](CO)C(=O)N[C@@H](CC(=O)O)C(=O)N[C@@H](Cc1c[nH]c2ccccc12)C(=O)N[C@@H](CO)C(=O)N[C@H](C(=O)N[C@@H](Cc1c[nH]cn1)C(=O)N[C@@H](Cc1c[nH]cn1)C(=O)N[C@@H](Cc1c[nH]cn1)C(=O)N[C@@H](Cc1c[nH]cn1)C(=O)N[C@@H](Cc1c[nH]cn1)C(=O)N[C@@H](Cc1c[nH]cn1)C(=O)O)[C@@H](C)O)[C@@H](C)O)C(C)C)[C@@H](C)O [CHIKV-43]
- n, molar ratio ([1]; HEPES buffer pH 7.5, 50 µM peptide injected into 10 µM NTF2L): 0.6 ± 0.002
- M.W., molecular weight of the peptide–NTF2L complex (NTF2L domain of G3BP1 [2]): 314.1 ± 0.28 kDa
- approximate M.W. of the peptide–NTF2L complex (NTF2L domain of G3BP1 [2]; rounded value of text): approximately 310 kDa
- SEC peak / high-order oligomer formation with NTF2L (NTF2L domain of G3BP1 [3]): formed a stable peak
- interaction with endogenous G3BP1 (endogenous G3BP1): obviously interact with G3BP1

Structure (SMILES): O=C(O[C@@H]1Cc2c(O)cc(O)cc2O[C@@H]1c1cc(O)c(O)c(O)c1)c1cc(O)c(O)c(O)c1 [Epigallocatechin gallate]
- effect on lung cancer cell growth (lung cancer cell): inhibits lung cancer cell growth

Structure (SMILES): Nc1ncn([C@H]2C[C@H](O)[C@@H](CO)O2)c(=O)n1 [decitabine]
- inhibition of SARS-CoV-2 propagation (SARS-CoV-2): inhibit SARS-CoV-2 propagation

Structure (SMILES): Cc1ccc(NC(=O)c2ccc(CN3CCN(C)CC3)cc2)cc1Nc1nccc(-c2cccnc2)n1 [imatinib]
- inhibition of SARS-CoV-2 propagation (SARS-CoV-2): inhibit SARS-CoV-2 propagation
